Measured values published in patent US4772599A, “Benzodiazepine derivatives and their preparation and use” (A/S Ferrosan, priority 1986, dated 1988).

System: benzodiazepine receptors
Test: In vivo displacement of 3H-flunitrazepam from brain benzodiazepine receptors
Conditions: mice (female, NMR), test substance i.p. 15 min before 3H-FNM i.v.; dose inhibiting 50% of specific 3H-FNM binding in forebrain
Excerpt: The pharmaceutical properties of the compounds of the invention can be illustrated by determining their capability for displacing radioactivity labelled flunitrazepam from benzodiazepine receptors.
The displacement activity of the compounds of the invention may be found by determining the ED50 value. The ED50 value represents the dose (mg/kg) of a test substance which causes the specific binding of flunitrazepam to benzodiazepine receptors in a living brain to be reduced to 50% of the control value.
Such an in vivo test is carried out as follow:
Principle. Twenty minutes after a dose of ^3 H-flunitrazepam (^3 H-FNM) (200 μCi/kg, i.v.) the amount of specific ^3 H-FNM binding to brain benzodiazepine receptors has reached its maximal value.
Test procedure. Suspensions of test substances (2 mg/ml) are prepared in 5% Duphasol-X (TM Duphar, caster oil-ethylene oxide derivative for emulsifying and solubilizing oil and other water-insoluble substances) by sonification for 10 min using a Branson B15 microtip ultrasonifier (setting 7). Groups of three mice (female, NMR, 18-22 grams) are injected with the test substance at 100 mg/kg intraperitoneally. Fifteen minutes after test substance administration the mice are challenged with 4 μCi intravenously of ^3 H-FNM (70-90 Ci/mole) in 200 μl physiological saline. Twenty minutes after ^3 H-FNM administration mice are sacrificed by decapitation, the forebrains rapidly excised (within 30 sec) and homogenized in 12 ml of icecold 25 mM KH2 PO4, pH 7.1, using an Ultra-Turrax™ homogenizer fitted with an N 10 shaft. Two aliquots of 1 ml are immediately filtered through Whatman GF/C glassfibre filters and washed with 2×5 ml of the above mentioned buffer. The amounts of radioactivity on the filters are determined by conventional scintillation counting. One group of untreated mice serves as control. One to three mice are injected with 25 μg/kg clonazepam i.p. 30 minutes before ^3 H-FNM to determine the amount of non-specific ^3 H-FNM binding, which should be between 8-15% of total binding. When doses of 100 mg/kg inhibit more than 50% of specific ^3 H-flunitrazepam binding, test substances are administered in doses, which are factors of 3.16 times lower than 100 mg/kg. The ED50 for a test substance is defined as that dose which inhibits 50% of specific ^3 H-FNM binding. Specific binding is the amount of binding in controls minus the amount of binding in clonazepam-treated mice.
Results. The ED50 value is determined from dose response curves. If only one dose of test substance is administered the ED50 value is calculated as follows, provided that the inhibition of specific binding is within the range of 25-75%: [formula] where Co is specific binding in controls of Cx is specific binding in mice treated with test substance.

| SMILES | In vivo displacement activity: ED50 [mg/kg] |
| --- | --- |
| CCc1noc(-c2cccc3c2C(=O)N(C)Cc2c(-c4nc(CC)no4)ncn2-3)n1 | 1.3 |
| CCOC(=O)c1cccc2c1C(=O)N(C)Cc1c(-c3nc(C4CC4)no3)ncn1-2 | 1.4 |
| Cc1nc(-c2ncn3c2CN(C)C(=O)c2c(-c4nc(-c5ccccc5)no4)cccc2-3)no1 | 1.7 |
| CCOC(=O)c1cccc2c1C(=O)N(C)Cc1c(-c3noc(C)n3)ncn1-2 | 1.5 |
| COC(=O)c1cccc2c1C(=O)N(C)Cc1c(-c3nc(C4CC4)no3)ncn1-2 | 0.4 |
